Consider 20 compounds from patent publication US20200281873A1, “Adamantane or Bicyclic Monoterpenoid Derivatives for Use in the Treatment of Leishmaniasis” (Commissariat a l'Energie Atomique et aux Energies …, priority 2017, published 2020).

Series [1] can be described thus: Cytotoxicity on RAW 264.7 macrophages. Format: cell-based, Mouse. As to conditions: mouse, RAW 264.7 macrophages; Table I.
Series [2] deals with L. infantum intramacrophagic amastigotes. In words: L. donovani infantum/RAW 264.7 macrophage model (intramacrophagic amastigotes, SYBR Green I). Format: cell-based, Leishmania donovani infantum. How it is done:
Protocol for Evaluation on the L. donovani infantum/RAW 264.7 Macrophage Model (Intramacrophagic Amastigotes)
Mouse macrophage cells RAW 264.7 (ATCC) were seeded into a 96-well microplate and maintained in DMEM medium (Applied Biosystems, France) supplemented with 10% heat-inactivated fetal bovine serum in a 5% CO2 incubator at 37° C. for 24 h. Then, the medium was replaced with 100 μL fresh medium containing a suspension of 10^5 L. infantum amastigotes and the incubation time was 16 h. Then, extracellular parasites were eliminated from the medium and 100 μL fresh medium containing compound in various concentrations were added for a 48 h-incubation. Parasite growth was determined by using SYBR® Green I (Life technology, Fisher Scientific, France), a dye with marked fluorescence enhancement upon contact with DNA. The cell lysis suspension was diluted 1:1 in lysis buffer (10 mM NaCl, 1 mM Tris HCl pH8, 2.5 mM EDTA pH 8, 0.05% SDS, 0.01 mg/mL proteinase K and 10×SYBR Green I). Incorporation of SYBR Green I in DNA amplification was measured using the Master epRealplex cycler® (Eppendorf, France) according to the following program to increase the SYBR green incorporation: 90° C. for 1 min, decrease in temperature from 90° C. to 10° C. for 5 min with reading the fluorescence at 10° C. for 1 min and a new reading at 10° C. for 2 min. The EC50 as the concentration inhibiting the parasite growth by 50% was calculated by nonlinear regression using icestimator website 1.2 version: http://www.antimalarial-icestimator.net/MethodIntro.htm.

Series [3] relates to Leishmania infantum axenic amastigotes. In words: Evaluation on Leishmania donovani infantum axenic amastigotes (SYBR Green I). Format: cell-based. On the procedure:
Protocol for Evaluation on Leishmania donovani infantum Axenic Amastigotes
Amastigote forms of the parasite were suspended to yield 10^7 parasitic cells mL^−1. The maximum final compound concentration used was 100 μM. Triplicates were used for each concentration. Cultures were incubated at 37° C. for 72 h in the dark and under a 5% CO2 atmosphere, then the viability of the amastigotes was assessed using the SYBR® Green I (Invitrogen, France) incorporation method. Parasite growth was determined by using SYBR® Green I, a dye with marked fluorescence enhancement upon contact with parasite DNA. Parasites were lysed and quantified by Direct PCR-Cell Genotyping without DNA isolation protocol (Euromedex, France). 10 μL of lysed parasite solution from each well was added to 40 μL of PCR-Cell reagent containing the SYBR® green I in a qPCR plate of 96 wells, and the contents were mixed. Fluorescence was measured with Mastercycler® ep realplex (Eppendorf, France). Measured fluorescence was compared to that from the range obtained with different parasite densities. The antileishmanial activity was expressed as IC50 in μM (concentration of drug inhibiting 50% of the parasite growth, comparatively to the controls treated with the excipient only).

Series [4] concerns L. infantum intramacrophagic amastigotes. In words: L. donovani infantum/RAW 264.7 macrophage model (intramacrophagic amastigotes, SYBR Green I). Format: cell-based, Leishmania donovani infantum. As to conditions: Table I; ratio.
A further series concerns RAW 264.7 macrophages. In words: Cytotoxicity on RAW 264.7 macrophages. Format: cell-based, Mouse. As to conditions: Table I.
Series [5] deals with L. donovani (MHOM/ET/67/HU3) amastigotes. In words: In vivo antileishmanial evaluation, Leishmania donovani/Balb/c mouse model (liver parasite load). As to conditions: for % reduction of parasite burden in the liver / LDU ± SD (parasites in the liver): Balb/c mice. On the procedure:
Compounds VP343, VP370 were evaluated in vivo for their antileishmanial properties by oral and intravenous route on the Leishmania donovani/Balb/c mouse model, comparatively to miltefosine, used as reference drug, according to a previously described protocol (Balaraman et al., 2015). Six- to eight-week-old Balb/c mice (Élevages Janvier, Le Genest Saint Isle, France) were infected intravenously on day 1 with 10^7 L. donovani (MHOM/ET/67/HU3) amastigotes derived from the spleen of hamsters and randomly sorted into four groups of 10 mice and one group of 12 mice as infected controls but not treated. The treatment administered orally or intravenously, started one week post-infection, on day 8, and continued for 5 consecutive days. At day 15, all groups of mice were autopsied and livers and spleens were weighed. Parasite load in the liver was determined by counting the number of amastigotes/500 liver cells in Giemsa-stained impression smears prepared from the liver and applying Stauber's formula. Three researchers counted the slides independently and the results are expressed as the mean values±SD. The parasite burden of treated groups and controls were compared using Student's t-test or the Kruskal-Wallis nonparametric analysis of variance test for comparing two groups. Significance was established for a P value<0.05.

The nature of series [6]: In vivo toxicity evaluation by oral route in mice (serum biochemical parameters). The arrangement: species or system Balb/C female mice; Serum urea: unit not given here. On the procedure: Biochemical parameters relative to VP343 and VP370 toxicity in Balb/C female mice (18-20 g) after a single treatment by oral route at 100 mg/kg under a 0.1 mL volume (=5 mL/kg). Serum were collected one week after the treatment. Excipient: Methylcellulose 1%+Tween 0.1%.
Dosages were performed with a Cobas 800 (Roche/Hitachi) apparatus.

The mark [7] stands for this setting: Leishmania infantum, Macrophage, Table II, 3 different experiments, SYBR Green I method, read-out: IC50 intramacrophagic.
Setting [8] is: Leishmania infantum, RAW264.7, Table I, RAW 264.7 macrophages, 48 h incubation, read-out: Intramacrophagic amastigotes IC50.
Where [9] appears, read: Leishmania infantum, Table I, 72 h incubation, read-out: Axenic amastigotes IC50.
Setting [10] is: Leishmania infantum, Table II, 3 different experiments, SYBR Green I method, read-out: IC50 axenic.
The mark [11] stands for this setting: intravenous route, 10 mg/kg/day × 5.
[12] abbreviates: single oral treatment 100 mg/kg, serum one week after treatment.

Like-named read-outs stand apart in the source and are kept apart here. Where only a bound is given, the exact number is not on record here.

Consider `COc1ccc(Br)cc1CNC12CC3CC(CC(C3)C1)C2` [ABMA], for which the midpoint of cytotoxicity in series [1], the CC50, lay at 25.3 ± 2.4 µM. The half-maximal inhibitory concentration (IC50) is 7100 nM in series [2] (setting [7]), 7100 ± 1700 nM in series [2] (setting [8]), greater than 100 µM in series [3] (setting [9]) and greater than 100 µM in series [3] (setting [10]). For the same compound, in series [4], the “Selectivity IC50 (Axenic amastigotes)/IC50 (Intramacrophagic amastigotes)” value (shortened to “Selectivity IC50”) is recorded as greater than 14.
Take `C[C@@H]1[C@H](O)[C@@H](C)/C=C/C=C/C=C/C=C/C=C/C=C/C=C/[C@H](O[C@@H]2O[C@H](C)[C@@H](O)[C@H](N)[C@@H]2O)C[C@@H]2O[C@](O)(C[C@@H](O)C[C@@H](O)[C@H](O)CC[C@@H](O)C[C@@H](O)CC(=O)O[C@H]1C)C[C@H](O)[C@H]2C(=O)O` [Amphotericin B, reference compound]: the CC50 in the series with RAW 264.7 macrophages worked out at 4.5 ± 0.4 µM. Moreover, the IC50 in series [2] (Table I, RAW 264.7 macrophages, 48 h incubation, read-out: Intramacrophagic amastigotes IC50) is 47 ± 5 nM; in series [3] (Table I, 72 h incubation, read-out: Axenic amastigotes IC50), 0.031 ± 0.002 µM. For the same compound, the “Selectivity IC50” value in series [4] is less than 1.
`CCCCCCCCCCCCCCCCOP(=O)([O-])OCC[N+](C)(C)C` [Miltefosine, reference compound] yielded a CC50 in series [1] of 12.5 ± 1.3 µM. The IC50 turned out to be 850 ± 200 nM in series [2] (setting [8]) and 1.2 ± 0.5 µM in series [3] (setting [9]). Further, the “% reduction of parasite burden in the liver” value was 65.9% in series [5] (setting [11]) and 84.6% in series [5] (oral route, 10 mg/kg/day × 5). For the same compound, the “LDU ± SD (parasites in the liver)” value in series [5] (setting [11]) is given as 0.36 ± 0.08 ×10^8; in series [5] (oral route, 10 mg/kg/day × 5, autopsy day 15), 0.19 ± 0.09 ×10^9. Also, the “Selectivity IC50” value in series [4] is on record as 1.4.
Turning to `COc1ccc(Br)cc1/C=N/C12CC3CC(CC(C3)C1)C2` [VP300A], the values for the IC50 in series [2] (setting [7]) and in series [3] (setting [10]) were 210 nM and 4.53 µM, respectively.
For `COc1ccc(Br)cc1CN[C@@H]1C[C@H]2CC[C@]1(C)C2(C)C` [VP305] the same measures were 60 nM and less than 0.5 µM.
`COc1ccc(Br)cc1CN[C@@H]1C[C@@H]2C[C@H]([C@H]1C)C2(C)C` [VP330]: the IC50 in series [2] (setting [7]) amounted to 250 nM; in series [3] (setting [10]) it was 4.86 µM.
For the compound `C[C@@H]1[C@@H](NCc2ccoc2)C[C@H]2C[C@@H]1C2(C)C` [VP354], the IC50 came out at 420 nM in series [2] (setting [7]) and 4.1 µM in series [3] (setting [10]).
For `C[C@@H]1[C@@H](NCc2ncc[nH]2)C[C@H]2C[C@@H]1C2(C)C` [VP358], the IC50 in series [2] (setting [7]) came out at 570 nM; in series [3] (setting [10]), 13 µM.
For `C[C@@H]1[C@@H](NCc2c[nH]c3ccccc23)C[C@H]2C[C@@H]1C2(C)C` [VP359] the same measures were 250 nM and greater than 100 µM.
On to `C[C@@H]1[C@@H](NCc2cccc(Br)c2)C[C@H]2C[C@@H]1C2(C)C` [VP361], for which the IC50 in series [2] (setting [7]) came out at 390 nM; in series [3] (setting [10]), 3.7 µM.
Regarding `COc1ccccc1CN[C@H]1C[C@H]2C[C@@H]([C@@H]1C)C2(C)C` [VP363], the IC50 in series [2] (setting [7]) was determined as 190 nM; in series [3] (setting [10]), 9.99 µM.
`COc1ccc(OC)c(CN[C@H]2C[C@H]3C[C@@H]([C@@H]2C)C3(C)C)c1` [VP369]: the values for the IC50 in series [2] (setting [7]) and in series [3] (setting [10]) were 110 nM and 15.5 µM, respectively.
In the case of `COc1cccc(OC)c1CN[C@H]1C[C@H]2C[C@@H]([C@@H]1C)C2(C)C` [VP370], the IC50 in series [2] (setting [7]) was 40 nM. In addition, the IC50 in series [3] (setting [10]) worked out at 36.3 µM. Moreover, in series [6] (setting [12]), the “Serum AST ± SD” value is given as 330 ± 68 U/L, the “Serum AST ± SD (second AST column)” value stood at 197 ± 41 U/L, the Serum creatinin was less than 18 µM and the Serum urea stood at 7.9 ± 1.5. Further, the “Toxicity after single oral treatment (in words)” value in series [6] (single treatment by oral route at 100 mg/kg) is “did not show toxicity”. For the same compound, the “% reduction of parasite burden in the liver” value in series [5] (oral route, 20 mg/kg/day × 5) worked out at 62.7%. In addition, the “LDU ± SD (parasites in the liver)” value in series [5] (oral route, 20 mg/kg/day × 5, autopsy day 15) is recorded as 0.46 ± 0.12 ×10^9. Further, the “Activity in vivo by oral route (in words)” value in series [5] (VP343 and VP370 at 20 mg/kg/day×5, VP343 also at 10 mg/kg/day×5, Tukey's multiple comparisons test) is given as “significantly active”.
Turning to `C[C@@H]1[C@@H](NCc2cccc(Cl)c2)C[C@H]2C[C@@H]1C2(C)C` [VP371], the IC50 in series [2] (setting [7]) was 190 nM; in series [3] (setting [10]) it was 30.5 µM.
For the compound `C[C@@H]1[C@@H](NCc2cc(F)ccc2F)C[C@H]2C[C@@H]1C2(C)C` [VP381], the IC50 in series [2] (setting [7]) is 170 nM; in series [3] (setting [10]), 58.8 µM.
On the same counts, the results for `C[C@@H]1[C@@H](NCc2ccc(I)cc2)C[C@H]2C[C@@H]1C2(C)C` [VP390] are 270 nM and 21.6 µM.
For `Cc1ccccc1CN[C@H]1C[C@H]2C[C@@H]([C@@H]1C)C2(C)C` [VP391] the same measures were 210 nM and 7.55 µM.
For `C[C@@H]1[C@@H](NCc2ccc(-n3ccnc3)cc2)C[C@H]2C[C@@H]1C2(C)C` [VP393] the same measures were 290 nM and 8.9 µM.
Consider `Cc1ccc(-c2ccc(CN[C@H]3C[C@H]4C[C@@H]([C@@H]3C)C4(C)C)cc2)cc1` [VP396], for which the values for the IC50 in series [2] (setting [7]) and in series [3] (setting [10]) were 210 nM and 5.56 µM, respectively.
In the case of `C[C@@H]1[C@@H](NCc2ccc3c(c2)Cc2ccccc2-3)C[C@H]2C[C@@H]1C2(C)C` [VP397], the figures for the IC50 in series [2] (setting [7]) and in series [3] (setting [10]) were 500 nM and 9.72 µM, respectively.
